This is an account of results in patent publication US11046680B1, “Heteroaryl-substituted triazoles as APJ receptor agonists” (priority 2016, dated 2021).

The assay has as its target human APJ receptor (Homo sapiens (Human), UniProt P35414). Briefly: biochemical. In kind it is biochemical. The settings on record: [35S]GTPγS binding, CHO membranes expressing human APJ receptor; read-out: Activity hAPJ SPA EC50 IP. The procedure, abridged:
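GTPγS binding on membranes from CHO cells stably expressing FLAG-tagged human APJ, with optimized GDP, MgCl2 and NaCl; incubated 90 min at RT before imaging read-out.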
In general terms: GTPγS resists hydrolysis and so accumulates on activated G proteins.

Sequence of human APJ receptor (P35414 whole entry): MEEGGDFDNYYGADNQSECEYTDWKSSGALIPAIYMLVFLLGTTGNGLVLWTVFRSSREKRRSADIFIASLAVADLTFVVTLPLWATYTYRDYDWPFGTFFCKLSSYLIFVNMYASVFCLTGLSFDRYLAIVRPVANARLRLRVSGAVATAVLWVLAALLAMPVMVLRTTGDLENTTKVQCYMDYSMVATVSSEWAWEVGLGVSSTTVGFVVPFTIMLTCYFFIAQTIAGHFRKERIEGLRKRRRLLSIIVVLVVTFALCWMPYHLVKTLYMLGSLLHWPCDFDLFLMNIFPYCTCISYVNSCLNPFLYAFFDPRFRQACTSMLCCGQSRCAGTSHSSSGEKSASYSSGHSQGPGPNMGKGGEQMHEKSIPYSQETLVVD

On to `COc1cccc(OC)c1-n1c(NS(=O)(=O)[C@@H](C)[C@H](OC)c2ncc(C)cn2)nnc1-c1n[nH]c2ccc(Cl)cc12` [Example 412.0, (1R,2S)-N-(5-(5-chloro-1H-indazol-3-yl)-4-(2,6-dimethoxyphenyl)-4H-1,2,4-triazol-3-yl)-1-methoxy-1-(5-methylpyrimidin-2-yl)propane-2-sulfonamide], for which the EC50 was 140 nM.
The same measure for `COc1cccc(OC)c1-n1c(NS(=O)(=O)[C@@H](C)[C@H](OC)c2ncc(C)cn2)nnc1-c1noc2ccc(Br)cc12` [Example 414.0]: 210 nM; for `COc1cccc(OC)c1-n1c(NS(=O)(=O)[C@@H](C)[C@H](OC)c2ncc(C)cn2)nnc1-c1cnn2ccccc12` [Example 415.0, (1R,2S)-N-(4-(2,6-dimethoxyphenyl)-5-(pyrazolo[1,5-a]pyridin-3-yl)-4H-1,2,4-triazo1-3-yl)-1-methoxy-1-(5-methylpyrimidin-2-yl)propane-2-sulfonamide]: 5.2 nM; for `COc1cccc(OC)c1-n1c(NS(=O)(=O)[C@@H](C)[C@H](OC)c2ncc(C)cn2)nnc1-c1cnn2ccc(C)cc12` [Example 416.0, (1R,2S)-N-(4-(2,6-dimethoxyphenyl)-5-(5-methylpyrazolo[1,5-a]pyridin-3-yl)-4H-1,2,4-triazol-3-yl)-1-methoxy-1-(5-methylpyrimidin-2-yl)propane-2-sulfonamide]: 8.4 nM.
Take `COc1cccc(OC)c1-n1c(NS(=O)(=O)[C@@H](C)[C@H](OC)c2ncc(C)cn2)nnc1-c1ccnc2ccccc12` [Example 417.0]: the EC50 came to 510 nM.
As to `COc1cccc(OC)c1-n1c(NS(=O)(=O)[C@@H](C)[C@H](OC)c2ncc(Cl)cn2)nnc1-c1n[nH]c2ccc(C)cc12` [Example 418.0, (1R,25)-1-(5-chloropyrimidin-2-yl)-N-(4-(2,6-dimethoxyphenyl)-5-(5-methyl-1H-indazol-3-yl)-4H-1,2,4-triazol-3-yl)-1-methoxypropane-2-sulfonamide], the half-maximal effective concentration (EC50) came to 5.5 nM.
The same measure for `COc1cccc(OC)c1-n1c(NS(=O)(=O)[C@@H](C)[C@H](OC)c2ncc(Cl)cn2)nnc1-c1c[nH]c2ncccc12` [Example 419.0, (1R,2S)-1-(5-chloropyrimidin-2-yl)-N-(4-(2,6-dimethoxyphenyl)-5-(1H-pyrrolo[2,3-b]pyridin-3-yl)-4H-1,2,4-triazol-3-yl)-1-methoxypropane-2-sulfonamide]: 2.4 nM.
In the case of `COc1ncnc(OC)c1-n1c(NS(=O)(=O)[C@@H](C)[C@H](OC)c2ncc(Cl)cn2)nnc1-c1noc2ccccc12` [Example 420.0, (1R,2S)-N-(5-(benzo[d]isoxazol-3-yl)-4-(4,6-dimethoxypyrimidin-5-yl)-4H-1,2,4-triazol-3-yl)-1-(5-chloropyrimidin-2-yl)-1-methoxypropane-2-sulfonamide], the EC50 is 27 nM.
For the molecule `COc1cccc(OC)c1-n1c(NS(=O)(=O)[C@@H](C)[C@H](OC)c2ncc(Cl)cn2)nnc1-c1n[nH]c2ccccc12` [Example 421.0, (1R,2S)-1-(5-chloropyrimidin-2-yl)-N-(4-(2,6-dimethoxyphenyl)-5-(1H-indazol-3-yl)-4H-1,2,4-triazol-3-yl)-1-methoxypropane-2-sulfonamide], the EC50 was found to be 4.5 nM.
Turning to `COc1cccc(OC)c1-n1c(NS(=O)(=O)[C@@H](C)[C@H](OC)c2ncc(Cl)cn2)nnc1-c1n[nH]c2ccc(Cl)cc12` [Example 422.0, (1R,2S)-N-(5-(5-chloro-1H-indazol-3-yl)-4-(2,6-dimethoxyphenyl)-4H-1,2,4-triazol-3-yl)-1-(5-chloropyrimidin-2-yl)-1-methoxypropane-2-sulfonamide], the half-maximal effective concentration (EC50) amounted to 6.2 nM.
For `COc1cccc(OC)c1-n1c(NS(=O)(=O)[C@@H](C)[C@H](OC)c2ncc(Cl)cn2)nnc1-c1cnn2ccccc12` [Example 423.0, (1R,2S)-1-(5-chloropyrimidin-2-yl)-N-(4-(2,6-dimethoxyphenyl)-5-(pyrazolo [1,5-a]pyridin-3-yl)-4H-1,2,4-triazol-3-yl)-1-methoxypropane-2-sulfonamide], the EC50 stood at 0.68 nM.
`COc1cccc(OC)c1-n1c(NS(=O)(=O)[C@@H](C)[C@H](OC)c2ncc(C)cn2)nnc1-c1cc(C2CC2)on1` [Example 424.0, (1R,25)-N-(5-(5-cyclopropylisoxazol-3-yl)-4-(2,6-dimethoxyphenyl)-4H-1,2,4-triazol-3-yl)-1-methoxy-1-(5-methylpyrimidin-2-yl)propane-2-sulfonamide]: the EC50 worked out at 21 nM.
The same measure for `COc1cccc(OC)c1-n1c(NS(=O)(=O)[C@@H](C)[C@H](OC)c2ncc(C)cn2)nnc1-c1cc(C)on1` [Example 425.0, (1R,25)-N-(4-(2,6-dimethoxyphenyl)-5-(5-methylisoxazol-3-yl)-4H-1,2,4-triazol-3-yl)-1-sulfonamide]: 8.1 nM.
For the molecule `COc1ncnc(OC)c1-n1c(NS(=O)(=O)[C@@H](C)[C@H](C)c2ncc(Cl)cn2)nnc1-c1n[nH]c2ccccc12` [Example 426.0, (2S,3R)-3-(5-chloropyrimidin-2-yl)-N-(4-(4,6-dimethoxypyrimidin-5-yl)-5-(1H-indazol-3-yl)-4H-1,2,4-triazol-3-yl)butane-2-sulfonamide], the EC50 is 14 nM.
As to `COc1ncnc(OC)c1-n1c(NS(=O)(=O)[C@@H](C)[C@H](C)c2ncc(C)cn2)nnc1-c1n[nH]c2ccccc12` [Example 427.0, (2S,3R)-N-(4-(4,6-dimethoxypyrimidin-5-yl)-5-(1H-indazol-3-yl)-4H-1,2,4-triazol-3-yl)-3-(5-methylpyrimidin-2-yl)butane-2-sulfonamide], the EC50 is 21 nM.
As to `COc1cccc(OC)c1-n1c(NS(=O)(=O)[C@@H](C)[C@H](OC)c2ncc(Cl)cn2)nnc1-c1c(C)nc2ccccn12` [Example 428.0, (1R,25)-1-(5-chloropyrimidin-2-yl)-N-(4-(2,6-dimethoxyphenyl)-5-(2-methylimidazo[1,2-a]pyridin-3-yl)-4H-1,2,4-triazol-3-yl)-1-methoxypropane-2-sulfonamide], the EC50 worked out at 120 nM.
As to `COc1cccc(OC)c1-n1c(NS(=O)(=O)[C@@H](C)[C@H](C)c2ncc(Cl)cn2)nnc1-c1n[nH]c2ccccc12` [Example 429.0], the half-maximal effective concentration (EC50) worked out at 7.6 nM.
On to `COc1cccc(OC)c1-n1c(NS(=O)(=O)[C@H](C)[C@@H](C)c2ncc(Cl)cn2)nnc1-c1n[nH]c2ccccc12` [Example 430.0], for which the EC50 is 2.8 nM.
In the case of `COc1cccc(OC)c1-n1c(NS(=O)(=O)[C@H](C)[C@@H](C)c2ncc(C)cn2)nnc1-c1n[nH]c2ccccc12` [Example 431.0, (2R,3S)-N-(4-(2,6-dimethoxyphenyl)-5-(1H-indazol-3-yl)-4H-1,2,4-triazol-3-yl)-3-(5-methylpyrimidin-2-yl)butane-2-sulfonamide], the concentration giving a half-maximal response (EC50) is 14 nM.
Turning to `COc1ncnc(OC)c1-n1c(NS(=O)(=O)[C@@H](C)[C@H](C)c2ncc(Cl)cn2)nnc1-c1nn(C)c2ccc(C)cc12` [Example 433.0, (2S,3R)-3-(5-chloropyrimidin-2-yl)-N-(4-(4,6-dimethoxypyrimidin-5-yl)-5-(1,5-dimethyl-1H-indazol-3-yl)-4H-1,2,4-triazol-3-yl)butane-2-sulfonamide], the EC50 stood at 0.84 nM.
For `COc1cccc(OC)c1-n1c(NS(=O)(=O)[C@@H](C)[C@H](OC)c2ncc(Cl)cn2)nnc1-c1ncnc2cc[nH]c12` [Example 434.0, (1R,2S)-1-(5-chloropyrimidin-2-yl)-N-(4-(2,6-dimethoxyphenyl)-5-(5H-pyrrolo[3,2-d]pyrimidin-4-yl)-4H-1,2,4-triazol-3-yl)-1-methoxypropane-2-sulfonamide], the EC50 amounted to 8.6 nM.
Turning to `COc1cccc(OC)c1-n1c(NS(=O)(=O)[C@@H](C)[C@H](OC)c2ncc(C)cn2)nnc1-c1ncnc2cc[nH]c12` [Example 435.0, (1R,2S)-N-(4-(2,6-dimethoxyphenyl)-5-(5H-pyrrolo[3,2-d]pyrimidin-4-yl)-4H-1,2,4-triazol-3-yl)-1-methoxy-1-(5-methylpyrimidin-2-yl)propane-2-sulfonamide], the EC50 was found to be 180 nM.
The value for `COc1cccc(OC)c1-n1c(NS(=O)(=O)[C@@H](C)[C@H](OC)c2ncc(C)cn2)nnc1-c1nn(C)c2ccccc12` [Example 436.0, (1R,2S)-N-(4-(2,6-dimethoxyphenyl)-5-(1-methyl-1H-indazol-3-yl)-4H-1,2,4-triazol-3-yl)-1-methoxy-1-(5-methylpyrimidin-2-yl)propane-2-sulfonamide] was 0.81 nM; that for `COc1cccc(OC)c1-n1c(NS(=O)(=O)[C@@H](C)[C@H](OC)c2ncc(C)cn2)nnc1-c1n[nH]c2ccc(F)cc12` [Example 437.0] was 190 nM; that for `COc1cccc(OC)c1-n1c(NS(=O)(=O)[C@@H](C)[C@H](C)c2ncc(Cl)cn2)nnc1-c1n[nH]c2c1CCCC2` [Example 438.0, (2S,3R)-3-(5-chloropyrimidin-2-yl)-N-(4-(2,6-dimethoxyphenyl)-5-(4,5,6,7-tetrahydro-1H-indazol-3-yl)-4H-1,2,4-triazol-3-yl)butane-2-sulfonamide] was 9.1 nM.
Regarding `COc1ncnc(OC)c1-n1c(NS(=O)(=O)[C@@H](C)[C@H](OC)c2ncc(Cl)cn2)nnc1-c1cnn2ccccc12` [Example 439.0, (1R,2S)-1-(5-chloropyrimidin-2-yl)-N-(4-(4,6-dimethoxypyrimidin-5-yl)-5-(pyrazolo[1,5-a]pyridin-3-yl)-4H-1,2,4-triazol-3-yl)-1-methoxypropane-2-sulfonamide], the EC50 amounted to 0.82 nM.
The value for `COc1ncnc(OC)c1-n1c(NS(=O)(=O)[C@@H](C)[C@H](C)c2ncc(Cl)cn2)nnc1-c1cnn2ccccc12` [Example 440.0, (2S,3R)-3-(5-chloropyrimidin-2-yl)-N-(4-(4,6-dimethoxypyrimidin-5-yl)-5-(pyrazolo[1,5-a]pyridin-3-yl)-4H-1,2,4-triazol-3-yl)butane-2-sulfonamide] was 0.96 nM.
`COc1cccc(OC)c1-n1c(NS(=O)(=O)[C@@H](C)[C@H](C)c2ncc(Cl)cn2)nnc1-c1noc2c1CCCC2` [Example 441.0, (2S,3R)-3-(5-chloropyrimidin-2-yl)-N-(4-(2,6-dimethoxyphenyl)-5-(4,5,6,7-tetrahydrobenzo[d]isoxazol-3-yl)-4H-1,2,4-triazol-3-yl)butane-2-sulfonamide]: the EC50 was 0.33 nM.

For orientation: EC50 means the concentration at which the effect is half-maximal.
